pIC50, pKi: −log10 of the molar value.
Experiments:
[1] = DRUGMATRIX: Phosphodiesterase PDE4 enzyme inhibition (substrate: [3H]cAMP + cAMP); settings: u-937; Not Active = under 50% inhibition at 10 µM
[2] = DRUGMATRIX: Phosphodiesterase PDE3 enzyme inhibition (substrate: [3H]cAMP + cAMP); format: tissue-based, Homo sapiens; settings: platelet; Not Active = under 50% inhibition at 10 µM
Adenosine receptor A1 = molecular target: T1, Adenosine receptor A1 (Homo sapiens, UniProt P30542); format: cell membranes, CHO, Membrane; settings: cho;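 note: radioligand binding assay at the adenosine A1 receptor, with DPCPX serving as the labelled ligand; in other assays of this panel Not Active means under 50% inhibition at 10 µM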
T1 sequence (P30542 whole entry): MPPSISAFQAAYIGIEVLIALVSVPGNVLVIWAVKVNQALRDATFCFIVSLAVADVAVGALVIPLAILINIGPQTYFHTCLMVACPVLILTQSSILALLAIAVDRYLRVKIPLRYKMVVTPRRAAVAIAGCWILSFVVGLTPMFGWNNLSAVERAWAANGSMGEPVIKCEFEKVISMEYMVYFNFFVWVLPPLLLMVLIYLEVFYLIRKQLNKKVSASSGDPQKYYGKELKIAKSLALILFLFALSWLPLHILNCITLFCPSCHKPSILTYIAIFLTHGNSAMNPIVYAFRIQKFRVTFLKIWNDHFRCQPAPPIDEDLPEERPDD

[3] = DRUGMATRIX: Sigma2 radioligand binding (ligand: [3H] Ifenprodil); format: cell membranes, Rattus norvegicus, Wistar, Brain, Membrane; settings: Not Active = under 50% inhibition at 10 µM; for pIC50: read-out: IC50; for pKi: read-out: Ki
[4] = molecular target: T2, Alpha-2C adrenergic receptor (Homo sapiens, UniProt P18825); experiment: DRUGMATRIX: Adrenergic Alpha-2C radioligand binding (ligand: [3H] MK-912); format: cell membranes, Sf9, Membrane; settings: for IC50: sf9
T2 sequence (P18825 whole entry): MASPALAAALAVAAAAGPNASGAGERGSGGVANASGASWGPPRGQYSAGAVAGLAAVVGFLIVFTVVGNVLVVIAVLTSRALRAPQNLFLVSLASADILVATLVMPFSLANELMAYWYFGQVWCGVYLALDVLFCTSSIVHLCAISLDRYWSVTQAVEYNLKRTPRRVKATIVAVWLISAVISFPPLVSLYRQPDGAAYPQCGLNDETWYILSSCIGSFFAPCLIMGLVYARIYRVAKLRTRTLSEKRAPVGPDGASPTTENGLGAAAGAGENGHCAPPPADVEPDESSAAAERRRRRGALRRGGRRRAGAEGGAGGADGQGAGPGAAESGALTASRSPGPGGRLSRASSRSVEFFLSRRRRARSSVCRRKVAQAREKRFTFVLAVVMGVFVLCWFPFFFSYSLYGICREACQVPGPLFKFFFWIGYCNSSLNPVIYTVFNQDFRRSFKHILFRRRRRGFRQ

SMILES | IC50 [1] | Ki [1] | IC50 [2] | Ki [2] | IC50 (Adenosine receptor A1) | IC50 [3] | Ki [3] | IC50 [4] | pIC50 [3] | pKi [3] | pIC50 ([4]; read-out: IC50) | pKi ([4]; read-out: Ki)
O=C(c1ccccc1C(F)(F)F)N1CCC(Cc2ccccc2)CC1 | Not Active | Not Active | Not Active | Not Active | Not Active | Not Active | Not Active | Not Active |  |  |  | 
O=C/C=C/c1ccccc1 | Not Active | Not Active | Not Active | Not Active | Not Active | Not Active | Not Active | Not Active |  |  |  | 
Nc1ccc2c3c(cccc13)C(=O)NC2=O | Not Active | Not Active | Not Active | Not Active | Not Active | Not Active | Not Active | Not Active |  |  |  | 
COc1ccc(C(=O)N2CCCC2=O)cc1 | Not Active | Not Active | Not Active | Not Active | Not Active | Not Active | Not Active | Not Active |  |  |  | 
O=c1cnn([C@@H]2O[C@H](CO)[C@@H](O)[C@H]2O)c(=O)[nH]1 [6-AZAURIDINE] | Not Active | Not Active | Not Active | Not Active | Not Active | Not Active | Not Active | Not Active |  |  |  | 
CC[C@H](C)[C@H]1O[C@]2(C=C[C@@H]1C)C[C@@H]1C[C@@H](C/C=C(\C)[C@@H](O[C@H]3C[C@H](OC)[C@@H](O[C@H]4C[C@H](OC)[C@@H](O)[C@H](C)O4)[C@H](C)O3)[C@@H](C)/C=C/C=C3\CO[C@@H]4[C@H](O)C(C)=C[C@@H](C(=O)O1)[C@]34O)O2.CO[C@H]1C[C@H](O[C@H]2[C@H](C)O[C@@H](O[C@@H]3/C(C)=C/C[C@@H]4C[C@@H](C[C@]5(C=C[C@H](C)[C@@H](C(C)C)O5)O4)OC(=O)[C@@H]4C=C(C)[C@@H](O)[C@H]5OC/C(=C\C=C\[C@@H]3C)[C@]54O)C[C@@H]2OC)O[C@@H](C)[C@@H]1O [ABAMECTIN] | Not Active | Not Active | Not Active | Not Active | Not Active | Not Active | Not Active | Not Active |  |  |  | 
NCCCC(O)(P(=O)(O)O)P(=O)(O)O [ALENDRONIC ACID] | Not Active | Not Active | Not Active | Not Active | Not Active | Not Active | Not Active | Not Active |  |  |  | 
Cc1nnc2n1-c1ccc(Cl)cc1C(c1ccccc1)=NC2 [ALPRAZOLAM] | Not Active | Not Active | Not Active | Not Active | Not Active | Not Active | Not Active | Not Active |  |  |  | 
Cn1c(=O)c2[nH]cnc2n(C)c1=O.Cn1c(=O)c2[nH]cnc2n(C)c1=O.NCCN [AMINOPHYLLINE] | Not Active | Not Active | Not Active | Not Active | Not Active | Not Active | Not Active | Not Active |  |  |  | 
CCC1(CCC(C)C)C(=O)NC(=O)NC1=O [AMOBARBITAL] | Not Active | Not Active | Not Active | Not Active | Not Active | Not Active | Not Active | Not Active |  |  |  | 
CC1(C)S[C@@H]2[C@H](NC(=O)[C@H](N)c3ccccc3)C(=O)N2[C@H]1C(=O)O [AMPICILLIN] | Not Active | Not Active | Not Active | Not Active | Not Active | Not Active | Not Active | Not Active |  |  |  | 
COc1ccc(C2C(=O)c3ccccc3C2=O)cc1 [ANISINDIONE] | Not Active | Not Active | Not Active | Not Active | Not Active | Not Active | Not Active | Not Active |  |  |  | 
O=C1O[C@H]([C@@H](O)CO)C(O)=C1O [ASCORBIC ACID] | Not Active | Not Active | Not Active | Not Active | Not Active | Not Active | Not Active | Not Active |  |  |  | 
CN1[C@@H]2CC[C@H]1C[C@@H](OC(=O)C(CO)c1ccccc1)C2 (stereo partly drawn) [ATROPINE] | Not Active | Not Active | Not Active | Not Active | Not Active | Not Active | Not Active | Not Active |  |  |  | 
CC(C(=O)O)c1ccc2oc(-c3ccc(Cl)cc3)nc2c1 (stereo not drawn) [BENOXAPROFEN] | Not Active | Not Active | Not Active | Not Active | Not Active | Not Active | Not Active | Not Active |  |  |  | 
COc1ccc2cc3[n+](cc2c1OC)CCc1cc2c(cc1-3)OCO2.[Cl-] [BERBERINE CHLORIDE] | Not Active | Not Active | Not Active | Not Active | Not Active |  |  |  | 7.02 | 7.23 | 5.55 | 6.39
O=C(O)CCNC(=O)c1ccccc1 [BETAMIPRON] | Not Active | Not Active | Not Active | Not Active | Not Active | Not Active | Not Active | Not Active |  |  |  | 
CC(=O)Oc1ccc(C(c2ccc(OC(C)=O)cc2)c2ccccn2)cc1 [BISACODYL] | Not Active | Not Active | Not Active | Not Active | Not Active | Not Active | Not Active | Not Active |  |  |  | 
Cc1cc2c(OCC(CNC(C)(C)C)OC(=O)c3ccccc3)cccc2[nH]1 (stereo not drawn) [BOPINDOLOL] | Not Active | Not Active | Not Active | Not Active | Not Active | Not Active | Not Active | Not Active |  |  |  | 
Brc1c(NC2=NCCN2)ccc2nccnc12 [BRIMONIDINE] | Not Active | Not Active | Not Active | Not Active | Not Active | Not Active | Not Active | Not Active |  |  |  | 
CN(C)[C@@H]1C(O)=C(C(N)=O)C(=O)[C@@]2(O)C(O)=C3C(=O)c4c(O)ccc(Cl)c4[C@@](C)(O)[C@H]3C[C@@H]12 [CHLORTETRACYCLINE] | Not Active | Not Active | Not Active | Not Active | Not Active | Not Active | Not Active | Not Active |  |  |  | 
CN/C(=N\CCSCc1nc[nH]c1C)NC#N [CIMETIDINE] | Not Active | Not Active | Not Active | Not Active | Not Active | Not Active | Not Active | Not Active |  |  |  | 
COc1cc(N)c(Cl)cc1C(=O)NC1CCN(CCCOc2ccc(F)cc2)CC1OC (stereo not drawn) [CISAPRIDE] | Not Active | Not Active | Not Active | Not Active | Not Active |  |  |  | 6.75 | 6.96 |  | 
N=C(N)NC(=O)Cc1c(Cl)cccc1Cl [GUANFACINE] | Not Active | Not Active | Not Active | Not Active | Not Active | Not Active | Not Active |  |  |  |  | 
COc1cc2nc(N3CCN(C(=O)c4ccco4)CC3)nc(N)c2cc1OC [PRAZOSIN] | Not Active | Not Active | Not Active | Not Active | Not Active | Not Active | Not Active |  |  |  |  | 
